Test system: KRAS PDC tumor spheroids (HUVEC+MSC), viability
Experiment: Anticancer human tumor 254851-301-R-J1-PDC patient-derived colon carcinoma cell line growth inhibition [KRAS2]
Settings: for viability, T/C: stronger effect = lower value
Description: Multicellular complex tumor spheroid response to RAS pathway inhibitors in combination with a targeted agents in patient-derived cell lines with oncogenic KRAS variants from multiple cancer types
A high-throughput screen of multi-cell type tumor spheroids was designed to identify active combinations of targeted small molecules and KRAS pathway inhibitors. Complex spheroids include a stromal component modeled by human endothelial cells (HUVEC) and fibroblasts modeled by human mesenchymal stem cells (MSCs). The concentration ranges selected for each drug and investigational agent were based upon clinically achievable concentrations if the clinical Cmax of the agent was known.
Compounds. The drugs and investigational agents: BI-3406 (NSC825286), BAY-293 (NSC824723), batoprotafib (TNO155; NSC825523), sotorasib (AMG 510; NSC818433), MRTX1257 (NSC819558), elimusertib (BAY 1895344; NSC800525), molibresib (GSK525762; NSC774829), temuterkib (LY3214996; NSC803410), venetoclax (NSC766270), alisertib (NSC759677), olaparib (NSC753686), talazoparib (NSC767125), erdafitinib (NSC781556), ipatasertib (NSC767898), cabozantinib (NSC761068), nintedanib (NSC756659), abemaciclib (NSC768073), docetaxel (NSC628503), trametinib (NSC758246), and sapanisertib (NSC764658) were obtained from the National Cancer Institute (NCI) Developmental Therapeutics Program Chemical Repository. The FDA-approved anticancer drug set is available from the Developmental Therapeutics Program. […] The stock solutions were prepared in dimethyl sulfoxide (DMSO, Sigma-Aldrich, St. Louis, MO, cat. D2650) at 800-fold the tested concentration and stored at -70 degrees C prior to their use. All drugs and investigational agents were tested over a range starting from a high concentration at or near the clinical Cmax and decreasing in half-log increments. If the clinical Cmax for an agent had not been determined, the highest concentration tested was 10 microM.
Cell Culture. All cells were maintained in an incubator at 37 degrees C and 5% CO2 with 95% humidity. The PDC lines were cultured according to standard operating procedures established by the NCI PDMR (https://pdmr.cancer.gov/sops/default.htm). Briefly, all PDCs were thawed and cultured in Matrigel-coated flasks prepared with a working solution of 1X Ham's F-12 nutrient mix, without supplementation (Invitrogen, Waltham, MA, cat. 11765054), 100 U/mL penicillin-streptomycin (Invitrogen, cat. 15140122), and 2.5% Matrigel (Corning Inc., Corning, NY, cat. 354248) for the first three passages. All PDCs were cultured in complete DMEM/F-12 media containing advanced DMEM/F-12 (Invitrogen, cat. 12634028), 4.9% defined fetal bovine serum, heat inactivated (HyClone Laboratories Inc., Logan, UT, cat. SH30070.03HI), 389 ng/mL hydrocortisone (Sigma-Aldrich, cat. H4001), 9.7 ng/mL human EGF recombinant protein (Invitrogen, cat. PHG0313), 23.4 microg/mL adenine (Sigma-Aldrich, cat. A2786), 97.3 U/mL penicillin-streptomycin (Invitrogen, cat. 15140122), 1.9 mM L-glutamine (Invitrogen, cat. 25030081), and 9.7 microM Y-27632 dihydrochloride (Tocris Bioscience, Bristol, United Kingdom, cat. 1254). The PDCs were cultured in complete DMEM/F12 media without 9.7 microM Y-27632 dihydrochloride for at least two passages prior to the screen. The established cell line HOP-62 was cultured in RPMI 1640 medium, HEPES (Invitrogen, cat. 22400105) with 10% defined fetal bovine serum (HyClone Laboratories Inc., cat. SH30070.03) and 2 mM L-glutamine (Invitrogen, cat. 25030081). The pooled donor HUVEC were cultured in endothelial cell growth medium 2 (PromoCell, Heidelberg, Germany, cat. C-22011) and the hMSC were cultured in mesenchymal stem cell growth medium 2 (PromoCell, cat. C-28009). For all experiments, HUVEC and hMSC were used at passages </=5, while the malignant cell lines were used at passages </=15. […]

[1] = curve of first compound, second compound 0.1 µM
[2] = curve of first compound, second compound 0.316 µM
[3] = curve of first compound, second compound 1 µM
[4] = curve of first compound, second compound 3.16 µM
[5] = curve of first compound, second compound 10 µM
[6] = second compound 0.1 µM, first compound 0.01 µM
[7] = second compound 0.1 µM, first compound 0.0316 µM
[8] = second compound 0.1 µM, first compound 0.1 µM
[9] = second compound 0.1 µM, first compound 0.316 µM
[10] = second compound 0.1 µM, first compound 1 µM
[11] = second compound 0.1 µM, first compound 3.16 µM
[12] = second compound 0.316 µM, first compound 0.01 µM
[13] = second compound 0.316 µM, first compound 0.0316 µM
[14] = second compound 0.316 µM, first compound 0.1 µM
[15] = second compound 0.316 µM, first compound 0.316 µM
[16] = second compound 0.316 µM, first compound 1 µM
[17] = second compound 0.316 µM, first compound 3.16 µM
[18] = second compound 1 µM, first compound 0.01 µM
[19] = second compound 1 µM, first compound 0.0316 µM
[20] = second compound 1 µM, first compound 0.1 µM
[21] = second compound 1 µM, first compound 0.316 µM
[22] = second compound 1 µM, first compound 1 µM
[23] = second compound 1 µM, first compound 3.16 µM
[24] = second compound 3.16 µM, first compound 0.01 µM
[25] = second compound 3.16 µM, first compound 0.0316 µM
[26] = second compound 3.16 µM, first compound 0.1 µM
[27] = second compound 3.16 µM, first compound 0.316 µM
[28] = second compound 3.16 µM, first compound 1 µM
[29] = second compound 3.16 µM, first compound 3.16 µM
[30] = second compound 10 µM, first compound 0.01 µM
[31] = second compound 10 µM, first compound 0.0316 µM
[32] = second compound 10 µM, first compound 0.1 µM
[33] = second compound 10 µM, first compound 0.316 µM
[34] = second compound 10 µM, first compound 1 µM
[35] = second compound 10 µM, first compound 3.16 µM
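Also: spheroids exposed to compounds for seven days before readout.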
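For viability, T/C in this document: 100% = DMSO vehicle control luminescence of the spheroids.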

Structure (SMILES) | IC50 [1] [µM] | IC50 [2] [µM] | IC50 [3] [µM] | IC50 [4] [µM] | IC50 [5] [µM] | viability, T/C [6] [%] | viability, T/C [7] [%] | viability, T/C [8] [%] | viability, T/C [12] [%] | viability, T/C [13] [%] | viability, T/C [14] [%] | viability, T/C [18] [%] | viability, T/C [19] [%] | viability, T/C [20] [%] | viability, T/C [24] [%] | viability, T/C [25] [%] | viability, T/C [26] [%] | viability, T/C [30] [%] | viability, T/C [31] [%] | viability, T/C [32] [%] | other results
CC(=O)OC12COC1CC(O)C1(C)C(=O)C(O)C3=C(C)C(OC(=O)C(O)C(NC(=O)OC(C)(C)C)c4ccccc4)CC(O)(C(OC(=O)c4ccccc4)C21)C3(C)C (configuration not stated) + CC1OCC2(CCN(c3cnc(Sc4ccnc(N)c4Cl)c(N)n3)CC2)C1N | 0.154 | 0.175 | 0.168 | 0.0801 | 0.0584 | 99.2 | 89.1 | 59.8 | 93.3 | 85.8 | 61.6 | 80.7 | 89.6 | 60.5 | 73.3 | 72.3 | 44.5 | 64.2 | 66.4 | 36.7 | viability, T/C [9]: 33.6%; viability, T/C [10]: 24.1%; viability, T/C [11]: 24%; viability, T/C [15]: 38.1%; viability, T/C [16]: 23.2%; viability, T/C [17]: 22.6%; viability, T/C [21]: 36.1%; viability, T/C [22]: 26.6%; viability, T/C [23]: 22.9%; viability, T/C [27]: 22.3%; viability, T/C [28]: 17.1%; viability, T/C [29]: 18.6%; viability, T/C [33]: 21.2%; viability, T/C [34]: 16.1%; viability, T/C [35]: 16.1%
CC(=O)OC12COC1CC(O)C1(C)C(=O)C(O)C3=C(C)C(OC(=O)C(O)C(NC(=O)OC(C)(C)C)c4ccccc4)CC(O)(C(OC(=O)c4ccccc4)C21)C3(C)C (configuration not stated) + CNCc1ccccc1-c1csc(C(C)Nc2nc(C)nc3cc(OC)c(OC)cc23)c1 | 0.176 | 0.126 | 0.184 | 0.0227 | < 0.01 | 101 | 86.3 | 62.6 | 90 | 79.9 | 55.7 | 81.3 | 80.5 | 61.5 | 77 | 38.9 | 9.76 | 1.07 | 0.14 | 1.91 | viability, T/C [9]: 37.7%; viability, T/C [10]: 26.1%; viability, T/C [11]: 25.3%; viability, T/C [15]: 30.4%; viability, T/C [16]: 25.5%; viability, T/C [17]: 25.4%; viability, T/C [21]: 39.8%; viability, T/C [22]: 25.3%; viability, T/C [23]: 24%; viability, T/C [27]: 13.6%; viability, T/C [28]: 0.92%; viability, T/C [29]: 23.3%; viability, T/C [33]: 0.55%; viability, T/C [34]: 24.2%; viability, T/C [35]: 0.21%
CN(C)C/C=C/C(=O)Nc1cc2c(Nc3ccc(F)c(Cl)c3)ncnc2cc1O[C@H]1CCOC1 |  |  |  |  |  |  |  |  |  |  |  |  |  |  |  |  |  |  |  |  | viability, T/C (compound 0.000316 µM): 104% [middle of 5 runs]; viability, T/C (compound 0.001 µM): 108% [middle of 5 runs]; viability, T/C (compound 0.00316 µM): 104% [middle of 5 runs]; viability, T/C (compound 0.01 µM): 96.8% [middle of 5 runs]; viability, T/C (compound 0.0316 µM): 97.6% [middle of 5 runs]; viability, T/C (compound 0.1 µM): 81.5% [middle of 5 runs]; IC50 (curve of compound): > 0.1 µM
CN(C)C/C=C/C(=O)Nc1cc2c(Nc3ccc(F)c(Cl)c3)ncnc2cc1O[C@H]1CCOC1 + C=CC(=O)N1CCN(c2nc(=O)n(-c3c(C)ccnc3C(C)C)c3nc(-c4c(O)cccc4F)c(F)cc23)C(C)C1 | > 0.1 | > 0.1 | > 0.1 | > 0.1 | > 0.1 | 93.8 | 97.2 | 93 | 89.6 | 93.4 | 75.2 | 87.2 | 83.6 | 73.5 | 93.8 | 100 | 82.5 | 94.6 | 95.6 | 74.4 | viability, T/C (second compound 0.1 µM, first compound 0.000316 µM): 110%; viability, T/C (second compound 0.1 µM, first compound 0.001 µM): 103%; viability, T/C (second compound 0.1 µM, first compound 0.00316 µM): 99.5%; viability, T/C (second compound 0.316 µM, first compound 0.000316 µM): 104%; viability, T/C (second compound 0.316 µM, first compound 0.001 µM): 102%; viability, T/C (second compound 0.316 µM, first compound 0.00316 µM): 96.5%; viability, T/C (second compound 1 µM, first compound 0.000316 µM): 99.5%; viability, T/C (second compound 1 µM, first compound 0.001 µM): 108%; viability, T/C (second compound 1 µM, first compound 0.00316 µM): 86.1%; viability, T/C (second compound 3.16 µM, first compound 0.000316 µM): 101%; viability, T/C (second compound 3.16 µM, first compound 0.001 µM): 98.7%; viability, T/C (second compound 3.16 µM, first compound 0.00316 µM): 87.1%; viability, T/C (second compound 10 µM, first compound 0.000316 µM): 109%; viability, T/C (second compound 10 µM, first compound 0.001 µM): 99.3%; viability, T/C (second compound 10 µM, first compound 0.00316 µM): 91.9%

From PubChem BioAssay AID1963868 (Molecular Pharmacology Branch, DTP, NCI, 2024)
